Calls of active or inactive are those of the source. The rule behind the calls is not given here.
Tests used:
[1] = system: PC-12; assay: Induction of neurite outgrowth in rat PC-12 cells at 1 to 30 uM incubated for 48 hrs; format: functional, cell-based; conditions: dose 1-30 µM
[2] = system: PC-12; assay: Induction of neurite outgrowth in rat PC-12 cells at 1 to 30 uM incubated for 48 hrs in presence of NGF; format: functional, cell-based; conditions: dose 1-30 µM
[3] = system: PC-12; assay: Induction of neurite outgrowth in rat PC-12 cells assessed as cell elongation at 30 uM incubated for 48 hrs in presence of NGF; format: functional, cell-based
[4] = target: Acetylcholinesterase (Homo sapiens) (UniProt P22303); assay: Inhibition of AChE (unknown origin) at 1 to 25 uM; conditions: dose 1-25 µM
Sequence of Acetylcholinesterase (Homo sapiens) (P22303 whole entry): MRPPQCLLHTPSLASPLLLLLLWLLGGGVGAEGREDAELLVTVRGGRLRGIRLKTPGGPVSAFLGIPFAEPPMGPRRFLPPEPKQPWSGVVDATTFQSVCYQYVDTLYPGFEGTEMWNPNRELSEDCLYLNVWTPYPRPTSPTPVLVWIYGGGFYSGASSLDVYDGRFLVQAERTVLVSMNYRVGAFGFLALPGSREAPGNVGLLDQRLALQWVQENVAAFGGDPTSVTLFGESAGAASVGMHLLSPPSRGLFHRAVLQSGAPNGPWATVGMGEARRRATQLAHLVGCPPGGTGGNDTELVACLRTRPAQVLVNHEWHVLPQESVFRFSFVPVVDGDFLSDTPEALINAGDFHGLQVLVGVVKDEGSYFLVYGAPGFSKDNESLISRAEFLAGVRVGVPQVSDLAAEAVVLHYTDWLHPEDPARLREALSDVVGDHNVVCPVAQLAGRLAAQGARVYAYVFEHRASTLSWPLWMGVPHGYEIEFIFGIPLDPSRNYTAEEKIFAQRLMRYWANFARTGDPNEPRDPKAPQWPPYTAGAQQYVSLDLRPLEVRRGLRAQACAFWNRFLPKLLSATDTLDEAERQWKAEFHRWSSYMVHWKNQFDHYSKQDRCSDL

Row | SMILES | Activity [1] | Activity [2] | Activity [3] | inhibition [4]
1 | Oc1ccc(CC2COc3ccccc3C2)cc1 (stereo not drawn) | inactive | Active | Active | inactive
2 | Oc1ccc(CC2COc3ccccc3C2)cc1O (stereo not drawn) | inactive | Active | Active | Active
3 | Oc1ccc2c(c1)OCC(Cc1ccc(O)c(O)c1)C2 (racemic) | inactive | Active | Active | Active
4 | O=C(O)/C=C/c1ccc(O)c(O)c1 |  |  |  | Active
5 | O=c1c(Cc2ccc(O)c(O)c2)coc2ccccc12 | inactive | Active | Active | Active
6 | CN(C)C(=O)Oc1cccc([N+](C)(C)C)c1 |  |  |  | Active
